Data published in PMC13053910, “Covalent Protein Inhibitors via Tyrosine and Tryptophan Conjugation with Cyclic Imine Mannich Electrophiles” (Angewandte Chemie (International Ed. in English), 2026).
“Also recorded” adds a separate entry of the source. Where two headings read alike, the source gives them in different places.

Tests used:
CBX8 ChD [1] = target: T1, CBX8 ChD (Homo sapiens, UniProt Q9HC52); assay: Covalent conjugation to CBX8 ChD, UV integration on LC/MS; assay type: binding
T1 construct: CBX chromodomain constructs (addgene plasmid #25158 (CBX2), and #62514 (CBX8, provided by Cheryl Arrowsmith)); 6His; host or cells: E. coli (BL21 CodonPlus RIL or Rosetta 2)
T1 sequence (Q9HC52 11-69 limits assumed): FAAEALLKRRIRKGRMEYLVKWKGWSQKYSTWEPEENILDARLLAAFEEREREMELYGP
Procedure: Percent covalent conjugation was determined by UV integration on LC/MS after overnight incubation at 10 µM compound and protein at 37 °C.
2.3 In Vitro CBX ChD Labeling with Covalent Inhibitors. 10 µM purified CBX ChD was incubated with imine covalent inhibitors (10 µM) in PBS buffer (pH 7) at 37 °C or R.T. Protein labeling samples were precipitated using MeOH and CHCl3 at the volume ratio of MeOH:CHCl3:sample=3:0.5:1, washed twice using cold MeOH, and air dried. Dried protein pellets were resuspended in aqueous buffer (0.1% formic acid, 300 mM ammonium acetate).
Precipitated samples were analyzed on a C4 reversed-phase column (e.g., 2.1 × 150 mm, 3–5 µm particle size) using a linear gradient of solvent A (0.1% formic acid in water) and solvent B (0.1% formic acid in acetonitrile). Elution was monitored by UV absorbance at 215 nm, and mass spectra were acquired in positive ion mode to confirm the identities of unlabeled and labeled protein species.
Labeling yield (%)=AlabeledAlabeled+Aunlabeled×100
For P2, 10 µM purified CBX ChD was incubated with P2 (10 µM) in PBS buffer (pH 7) at 37 °C or R.T. for 1.5 hours, as well as 12 hours overnight. […] Dried protein pellets were resuspended in aqueous buffer (0.1% formic acid, 300 mM ammonium acetate), and protein labeling were characterized and quantitated by ESI LC-MS.

CBX8 ChD [2] = target: T1, CBX8 ChD; assay: Time-dependent fluorescence polarization displacement assay, CBX8 ChD; assay type: binding; settings: Figure 5d, CBX8 ChD 2 µM, PBS pH 7
CBX2 ChD [3] = target: T2, CBX2 ChD (Homo sapiens, UniProt Q14781); assay: Time-dependent fluorescence polarization displacement assay, CBX2 ChD; assay type: binding; settings: for IC50: Figure 5d, CBX2 ChD 2 µM, probe 100 nM
T2 construct: CBX chromodomain constructs (addgene plasmid #25158 (CBX2), and #62514 (CBX8, provided by Cheryl Arrowsmith)); 6His; host or cells: E. coli (BL21 CodonPlus RIL or Rosetta 2)
T2 sequence (Q14781 12-70 limits assumed): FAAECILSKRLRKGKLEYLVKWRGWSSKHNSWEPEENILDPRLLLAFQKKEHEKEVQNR
Procedure: (§1) Observed masses are shown (expected average mass for CBX8 ChD = 8792 Da). The observed mass difference (913 Da) agrees with the expected mass change of 913 Da. b) Labeled protein was detected by gel shift on 16.5% Tris‐Tricine SDS‐PAGE. […] Gel analysis was conducted on a 2.5% agarose gel in 10 mM sodium borate buffer. […] Assays were conducted using SW2_113 as an FP probe (Figure S20) at 100 nM. All proteins were used at 2 µM in PBS (pH 7), 0.02% Tween 20. Error bars represent SD. […] (μM); no other compound label is printed beside the IC50 lines
2.2 Fluorescence Displacement Assay to Evaluate Time-dependent potency of Imine Covalent Inhibitors to CBX ChD. Fluorescence polarization (FP) was measured by titration of CBX ChDs (CBX8 ChD/CBX8 ChD Y39F/CBX2 ChD) to a fluoresceine-labelled probe as previously reported ^1. Fluorescence displacement assays were performed in black 384-well plates with optical bottoms. Buffer used in FP assays consists of 100 mM Na2HPO4, 150 mM NaCl, 0.02% Tween 20. […] Two-fold dilutions of covalent inhibitors were used, starting with 100 µM as highest peptide concentration to 0.049 µM as the lowest. Four replicates were tested at each concentration. Fluorescence anisotropy was read at different time points. Raw data were analyzed using GraphPad Prism 7 following a “one site-Fit logIC50” competition model with any outliers (95 % confidence interval) being excluded.
Time-dependent fluorescence displacement assay Fluorescence polarization (FP) was measured by titration of CBX ChDs (CBX8 ChD/CBX8 ChD Y39F/CBX2 ChD) to a fluorescein-labelled probe as previously reported.^8 Fluorescence displacement assays were performed in black 384-well plates with optical bottoms. Buffer used in FP assays consists of 100 mM Na2HPO4, 150 mM NaCl, 0.02% Tween 20. […] Fluorescence anisotropy was read at different time points. […] Raw data were analyzed using GraphPad Prism 7 following a “one site-Fit logIC50” competition model with any outliers (95 % confidence interval) being excluded.

[4] = Stability in bovine serum-containing cell media (LC/MS); assay type: in vitro ADME; settings: 20 µM, DMEM with 15% FBS, 24 h, 37 °C
Procedure: To be suitable for chemical probe and therapeutic applications, the warhead should show good stability. In general, we found the iminolactam warheads to be quite stable. Compound 1 was stable as a solid at room temperature for over 3 months. […] After 24‐h in aqueous buffer, compounds were treated with sodium cyanoborohydride. […] The synthetic strategy of in situ formation of imines by periodate treatment was pursued to avoid concerns of warhead reactivity with the ligand itself to either the peptide backbone or the phenoxyphenyl aryl group. This appears to have been unnecessary, at least for the iminolactam warhead. […] The more reactive ester imine may be forming semi‐stable cyclized products with the amide backbone, which have been observed previously with peptide aldehydes.^[ [51], [52] ^] Due to these issues, we selected compound P1b for further characterization.
Figure S17. Stability of cyclic imine inhibitors to serum-containing cell culture media. […] The protein fraction was then precipitated with addition of 2 volumes of 1:1 EtOH:acetonitrile and overnight incubation at -20 °C. Samples were centrifuged 16,000 g for 30 minutes. Supernatants were filtered through a 0.5 micro spin filter and evaporated with a speed vacuum. The compounds were resuspended in PBS and analzyed by LC/MS. […] Overlaid spectra of UV at 215 nm are shown and are representative of 3 replicates.

CBX2 ChD [5] = target: T2, CBX2 ChD; assay: Labeling of CBX2 ChD (gel shift, MS); assay type: binding; settings: gel shift or MS
Procedure: as §1
We confirmed protein labeling through a gel shift assay on Tris‐Tricine SDS‐PAGE (Figure 5b). […] To validate labeling of the targeted tyrosine residue (Y39), this amino acid was mutated to phenylalanine. […] We additionally confirmed the labeling site as Y39 by trypsin digest and LC‐MS/MS analysis (Figure S9B).
For P2, 10 µM purified CBX ChD was incubated with P2 (10 µM) in PBS buffer (pH 7) at 37 °C or R.T. for 1.5 hours, as well as 12 hours overnight. Samples were precipitated using MeOH and CHCl3 at the volume ratio of MeOH:CHCl3:sample=3:0.5:1, washed twice using cold MeOH, and air dried. Dried protein pellets were resuspended in aqueous buffer (0.1% formic acid, 300 mM ammonium acetate), and protein labeling were characterized and quantitated by ESI LC-MS.

- % conj. to CBX8 at 37 °C Overnight 10 μM each (CBX8 ChD [1]; 10 µM compound and protein, 37 °C, overnight): ~90%
- effect of GSH on CBX8 ChD labeling yield (CBX8 ChD [1]; presence of 10 mM GSH): no effect on yield
- IC50 (CBX8 ChD [2]; SW2_113 probe 100 nM, read-out: IC50 at time 0): 9.9 µM
- IC50 (CBX8 ChD [2]; IC50 at 20 h, probe 100 nM): 2 µM
- IC50 (CBX2 ChD [3]; read-out: IC50 at time 0): 17 µM
- IC50 (CBX2 ChD [3]; IC50 at 20 h): 15 µM
- change in potency in time‐dependent FP assay (CBX2 ChD [3]; binding to CBX2): no change in potency
- labeling of CBX2 ChD (CBX2 ChD [5]): no labeled protein was detected
Structure (SMILES): CC[C@H](C)[C@H](NC(=O)[C@@H](NC(=O)c1ccc(Oc2ccccc2)cc1)C1CCCC1)C(=O)N[C@@H](CCCCN(CC)CCCCCCN1CCN=CC1=O)C(=O)N[C@@H](CO)C(N)=O [P1b]
- stability in bovine serum‐containing cell media [4]: no degradation or loss to the protein fraction; also recorded: minimal loss of compounds to the precipitated protein fraction or degradation
